{"source": "paper PMC4812296", "about": "“A chemical family-based strategy for uncovering hidden bioactive molecules and multicomponent interactions in herbal medicines” (Scientific Reports, 2016)"}
{"target": "T1, thrombin (Bos taurus, UniProt P00735)", "T1 construct": "gene F2", "assay": "chromogenic S-2238 hydrolysis assay, bovine plasma thrombin", "format": "biochemical", "units": {"IC50": "µM"}}
{"smiles": "Cc1cccc2c3c(ccc12)C1=C(C(=O)C3=O)[C@@H](C)CO1", "note": "(single isomer, unassigned) [peak 15, Dihydrotanshinone I]", "IC50": "92 ± 5"}
{"smiles": "C[C@H]1COC2=C1C(=O)C(=O)c1c2ccc2c1CCCC2(C)C", "note": "(single isomer, unassigned) [peak 16, Cryptotanshinone]", "IC50": "102 ± 4"}
{"smiles": "Cc1coc2c1C(=O)C(=O)c1c-2ccc2c(C)cccc12", "note": "[peak 17, Tanshinone I]", "IC50": "333 ± 28"}
{"smiles": "Cc1coc2c1C(=O)C(=O)c1c-2ccc2c1CCCC2(C)C", "note": "[peak 18, Tanshinone IIA]", "IC50": "39 ± 1"}
